Measured values from US11234960B2, “Compositions and methods for improving mitochondrial function and treating neurodegenerative diseases and cognitive disorders” (Amazentis SA, priority 2010, dated 2022).

What was measured:
Type in all cases: in vivo
[1] = test system: maternally separated mice; assay: Rotarod motor learning in early-life stress mice; conditions: early-life stressed mice, 90 mg/kg/day (FIG. 44)
Procedure: (§1) At postnatal day 1, pups were culled to have 6 pups per mother. From postnatal day 1 to 14, unpredictable maternal separation (MS) of a period of 3 hours daily was carried out. Maternal separation was performed at random times (from 8 am to 2 pm) to avoid the habituation of the mother to the procedure. The protocol consisted of removing pups from their mother to another cage at room temperature for a 3 hour period, after which the pups were returned to their original nest. These groups are denoted as early-life stress in the figures. A control group of dam/pups was left undisturbed and is denoted in the figures as normal.
One week after maternal separation mice were separated into two groups. One control group received the standard mouse chow diet (Untreated), while the other group received the ellagitannin punicalagin admixed into the food and designed to deliver a dose of 90 mg/kg/day to the mice. Treatment with the diet began 1 week after the termination of the maternal separation treatment. […]
To measure the effects of pomegranate-derived compounds on the negative cognitive impacts of maternal separation, effects on motor learning were assayed using the rotarod behavioral assay. […] The latency to fall was measured with a cutoff time of 300 sec. […]

[2] = test system: maternally separated mice; assay: Contextual fear conditioning in early-life stress mice; conditions: early-life stressed mice
Procedure: as §1
One week after maternal separation mice were separated into two groups. […]
Contextual fear conditioning was used to determine the effects of the ellagitannin punicalagin on the susceptibility of adult animals, subjected to early life stress, to anxiety. […] Animal behavior was monitored every 2 seconds throughout the duration of the experiment. The period that mice spent immobile in the chamber was considered as “freezing” and was scored throughout these periods. The time the mice spent immobile after the first shock was recorded for a 60 second period and expressed as a percentage. […]

normal mice = assay: Treadmill endurance test in normal mice; conditions: 55 mg/kg/day in food, 6 weeks of treatment (FIG. 49)
Procedure: Normal 8-week-old mice were acclimated for 2 weeks prior to the start of the study. Mice were fed with a standard rodent diet (chow diet) or a diet containing urolithin A mixed with the food to reach a dosing of 55 mg/kg/day delivered to the mice. Following 6 weeks of treatment, mice were tested for their muscle performance by means of an endurance test.
An endurance test was performed using a variable speed belt treadmill enclosed in a plexiglass chamber with a stimulus device consisting of a shock grid attached to the rear of the belt (Panlab, Barcelona, Spain). Mice were run at 10 cm/sec and a 0° of incline for 5 min. Speed was then incremented by 2 cm/sec every 5 min, until mice were exhausted. The distance run and the number of shocks obtained over 5 min intervals were recorded. Mice were considered exhausted and removed from the experiment when they received approximately 20 shocks in a period of 1 min. Control untreated and urolithin A-treated mice were tested and compared for their performance.
Improved muscle performance and endurance is reflected by an ability to run at higher speeds on the treadmill. Mice will seek to avoid the shock and will run despite the increasing speed. At a certain point the mice are unable to keep up with the treadmill speed and are shocked. After reaching the threshold levels of shocks, mice are removed from the treadmill. […]

SMILES	motor learning, latency to fall from rotarod [1]	freezing time after the first foot shock (anxiety level) ([2]; 90 mg/kg/day in food, 60 second period (FIG. 42))	extinction of contextual recall (freezing as percent of day 1) ([2]; 90 mg/kg/day, 12 days, reduced freezing between days 8 and 12 (FIG. 43))	muscle performance and endurance, treadmill speed (normal mice)
O=C1O[C@H]2[C@@H]3OC(=O)c4cc(O)c(O)c(O)c4-c4c(O)c(O)c5oc(=O)c6c(c(O)c(O)c7oc(=O)c4c5c76)-c4c(cc(O)c(O)c4O)C(=O)OC[C@H]3OC(O)[C@@H]2OC(=O)c2cc(O)c(O)c(O)c2-c2c1cc(O)c(O)c2O (mixture of isomers) [punicalagin, 2,3 hexahydroxydiphenoyl-4,6-gallagylglucose]	restored motor learning skills	decreased and normalized these elevated anxiety levels	faster extinction than untreated early-life stressed mice	
O=c1oc2cc(O)ccc2c2ccc(O)cc12 [urolithin A, 3,8-Dihydroxydibenzo-α-pyrone]				ran at higher speeds than untreated control mice
